Source: US11992497B2 (priority 2021, dated 2024)

How the values were obtained:
[1] = tested on: indomethacin induced intestinal injury; assay: Indomethacin-induced Crohn's disease in rats; assay type: in vivo; conditions: for small intestine weight compared to vehicle: all three treatment groups (50, 200, 800 mg/kg PO, days 0-3); for body weight change (prevention of weight loss): all treatment groups (50, 200, 800 mg/kg PO, days 0-3), vs dexamethasone (Compound 2: also vehicle)
Procedure: The objective of this study was to determine the efficacy of Compound 1 and Compound 2 in a model of Crohn's disease (indomethacin induced intestinal injury) in rats.
The study design was identical for Compound 1 and Compound 2. On study day −3, rats were weighed and distributed into treatment groups based on body weight.
On study day 0, treatment was initiated and continue as indicated in the Study Design Tables below. Groups 2-6 received a subcutaneous injection of indomethacin (9 mg/kg, 1 ml/kg) in 5% sodium bicarbonate (Sterile Water). On study day 1, Groups 2-6 received a second subcutaneous injection of indomethacin (8 mg/kg, 1 ml/kg) in 5% sodium bicarbonate (Sterile Water). Live phase sample & data collection specifics are outlined below. On study day 4, animals will be euthanized, a section of the small intestine will be removed and weighed. Further necropsy sample and data collection is specified below. Overall efficacy of test articles will be based on body weight, small intestine weight (10 cm), small intestine gross score, and histopathology
At necropsy, the small intestines were evaluated visually and given a gross score according to the following criteria: ⋅0=Normal. 0.5=Very Minimal thickening, multifocal in area at risk. 1=Minimal thickening, fairly diffuse in area at risk. 2=Mild to moderate small intestinal/mesenteric thickening throughout area at risk. 3=Moderate thickening with 1 or more definite adhesions that would be easy to separate. 4=Marked thickening with numerous hard to separate adhesions. 5=Severe intestinal lesion resulting in death.
Preserved 9-cm sections of small intestine were trimmed into 6 transverse sections collected at approximately equal intervals along the […] of the intestine, without bias toward lesion presence or absence. These trimmed sections were processed through graded alcohols and a clearing agent, infiltrated and embedded in paraffin, sectioned, and stained with hematoxylin and eosin (H&E).
Small intestine sections from all animals were examined microscopically by a board-certified veterinary pathologist, and observations were entered into a computer-assisted data retrieval system. Cross sections of small intestine were scored for inflammation and necrosis using the following criteria:
The area at risk for development of this lesion is generally approximately 30% of the total area of a cross section of small intestine where the mesentery attaches.
Inflammation is localized to the mesentery and intestinal area at risk for necrosis with slight extension on either side of it. […] In this case, inflammation is scored based on overall severity ranging from 0.5 (very minimal) to 5 (severe) without regard for the extent of necrosis. The mean score for necrosis and inflammation was calculated for each animal and these mean scores were then summed to arrive at a total score. Each section also has a measurement of total width of mucosal necrosis.

[2] = target: T1, UGT1A4 (Homo sapiens, UniProt P22310); assay: UGT reaction phenotyping, recombinant Supersomes; assay type: in vitro ADME; conditions: human, recombinant UGT1A4 Supersomes, pH 7.4, Test Conc. 1 μM; for microsomal CLint at 1 µM: read-out: Recombinant UGT CLINT Clearance; for half-life at 1 µM: read-out: Recombinant UGT Half Life T1/2
T1 construct: purchased BD Biosciences
T1 sequence (P22310 29-534): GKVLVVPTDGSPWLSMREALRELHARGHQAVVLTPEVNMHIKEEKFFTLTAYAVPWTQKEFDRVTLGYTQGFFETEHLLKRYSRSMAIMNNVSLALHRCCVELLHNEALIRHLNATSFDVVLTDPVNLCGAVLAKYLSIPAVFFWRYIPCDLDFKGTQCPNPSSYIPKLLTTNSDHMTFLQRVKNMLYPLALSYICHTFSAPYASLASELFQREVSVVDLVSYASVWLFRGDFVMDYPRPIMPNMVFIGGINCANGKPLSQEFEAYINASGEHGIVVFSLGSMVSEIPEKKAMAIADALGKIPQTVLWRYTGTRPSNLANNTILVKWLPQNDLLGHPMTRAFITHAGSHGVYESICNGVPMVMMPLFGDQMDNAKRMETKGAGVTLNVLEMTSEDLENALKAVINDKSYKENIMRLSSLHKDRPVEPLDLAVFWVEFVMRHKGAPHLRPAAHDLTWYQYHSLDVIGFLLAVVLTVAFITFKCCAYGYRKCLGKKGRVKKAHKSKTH
Description: Experimental Summary: UGT Reaction Phenotyping (7 Isoforms).

[3] = tested on: cryopreserved hepatocytes; assay: Hepatocyte stability and metabolite profiling; assay type: in vitro ADME, dog; conditions: dog hepatocyte samples
Procedure: (§1) The objective of this study was to investigate the stability of the test compound, CBG, in human, rat, dog, mouse, monkey and minipig cryopreserved hepatocytes. Follow-on metabolite profiling was performed.
(§2) CBG was incubated up to 2 hr with cryopreserved hepatocytes. Cryopreserved hepatocytes in suspension were added to test compound in supplemented media following pre-incubation to initiate the reaction and the reactions were stopped by organic solvent at the appropriate time points. The termination plates were centrifuged and sample supernatants were analysed using Cyprotex generic LC MS/MS conditions to generate intrinsic clearance values for CBG. Two control compounds for each species were included in the assay and if the values for these compounds were not within the specified limits the results were rejected and the experiment repeated.
(§3) Following the hepatocyte stability assay the samples were 59tilized for metabolite profiling using suitable high-resolution LC-MS/MS conditions. The 40 and 60 minute human samples, 20 and 120 minute rat samples, 10 and 20 minute dog and monkey samples, 20 and 60 minute mouse samples, and 40 and 120 minute minipig samples were compared against the 0 minute control sample to establish which and how many metabolites were formed. […] No further analysis was carried out with the mouse species.
(§4) The areas and percentages reported for the parent and metabolites were calculated using the XIC data. Metabolite observed at greater than 1% of the total of drug related material are reported. […] For accuracy, a ppm error of less than 5 is desirable; when the response for a metabolite observed is low the ppm error maybe greater than 5. Where a metabolite has been referred to as a potential oxidation it can refer to a potential hydroxylation, epoxidation or oxide formation. Representative collision induced dissociation (CID) mass spectra were obtained for the metabolites found.

[4] = Hepatocyte stability and metabolite profiling; assay type: in vitro ADME, dog; conditions: cryopreserved hepatocytes in suspension; Dog cryopreserved hepatocytes
Procedure: as §1, §2, §3, §4

[5] = tested on: cryopreserved hepatocytes; assay: Hepatocyte stability and metabolite profiling; assay type: in vitro ADME, human; conditions: human hepatocyte samples
Procedure: as §1, §2, §3, §4

[6] = Hepatocyte stability and metabolite profiling; assay type: in vitro ADME, human; conditions: cryopreserved hepatocytes in suspension; Human cryopreserved hepatocytes
Procedure: as §1, §2, §3, §4

[7] = Compound 1 Group 5 (200 mg/kg PO)
[8] = Compound 1 Groups 4 and 5 (50, 200 mg/kg PO)

CCCCCc1cc(OC)c(C/C=C(\C)CCC=C(C)C)c(OC)c1 [Compound 2, (E)-2-(3,7-dimethylocta-2,6-dien-1-yl)-1,3-dimethoxy-5-pentylbenzene]
reduction of necrosis width, of vehicle ([1]; Compound 2 Group 5): 99% | histopathology scores vs vehicle and dexamethasone ([1]; Compound 2 Group 5 & 6): significantly lower | necrosis width vs vehicle and dexamethasone ([1]; Compound 2 Group 5 & 6): significantly lower | reduction of necrosis width, of vehicle ([1]; Compound 2 Group 6): 96% | Histopathology scores vs vehicle ([1]; Compound 2 Groups 4-6): lower than the vehicle | necrosis width vs vehicle ([1]; Compound 2 Groups 4-6): lower than the vehicle | small intestine gross score compared to vehicle ([1]; Group 4 (50 mg/kg PO)): trend in lower small intestine gross score | small intestine gross score compared to vehicle ([1]; Groups 5-6 (200, 800 mg/kg PO)): significant reductions | small intestine weight compared to vehicle [1]: significantly lower | body weight change (prevention of weight loss) [1]: trended towards or had significant differences in preventing weight loss

CCCCCc1cc(O)c(C/C=C(\C)CCC=C(C)C)c(OC)c1 [Compound 1, (E)-2-(3,7-dimethylocta-2,6-dien-1-yl)-3-methoxy-5-pentylphenol]
microsomal CLint at 1 µM [2]: < 2.89 µL/min/mg | half-life at 1 µM [2]: > 240 min | histopathology scores vs vehicle and dexamethasone [1, 7]: significantly lower | necrosis width vs vehicle and dexamethasone [1, 7]: significantly lower | Histopathology scores vs vehicle and positive control [1, 8]: trended lower | necrosis width vs vehicle and positive control [1, 8]: trended lower | small intestine gross score compared to vehicle ([1]; Group 4 (50 mg/kg PO)): trend in lower small intestine gross score | small intestine gross score compared to vehicle ([1]; Groups 5-6 (200, 800 mg/kg PO)): significant reductions | small intestine weight compared to vehicle [1]: significantly lower | body weight change (prevention of weight loss) [1]: trended towards or had significant differences in preventing weight loss

CCCCCc1cc(O)c(C/C=C(\C)CCC=C(C)C)c(O)c1 [CBG, cannabigerol]
microsomal CLint at 1 µM [2]: < 2.89 µL/min/mg | half-life at 1 µM [2]: > 240 min | number of metabolites observed [3]: three | half-life [4]: 52.7 min | hepatocyte CLint [4]: 26.3 µL/min/1e6 cells | number of metabolites observed [5]: Seven | half-life [6]: 22.6 min | hepatocyte CLint [6]: 61.4 µL/min/1e6 cells
